The record followed here is ChEMBL document CHEMBL1151780, “Correlation of inhibitor effects on enzyme activity and thermal stability for the integral membrane protein fatty acid amide hydrolase” (Bioorg Med Chem Lett, 2008).

In assay [1] the target is T1, Fatty-acid amide hydrolase 1 (Homo sapiens, UniProt O00519).
T1 sequence (O00519 whole entry): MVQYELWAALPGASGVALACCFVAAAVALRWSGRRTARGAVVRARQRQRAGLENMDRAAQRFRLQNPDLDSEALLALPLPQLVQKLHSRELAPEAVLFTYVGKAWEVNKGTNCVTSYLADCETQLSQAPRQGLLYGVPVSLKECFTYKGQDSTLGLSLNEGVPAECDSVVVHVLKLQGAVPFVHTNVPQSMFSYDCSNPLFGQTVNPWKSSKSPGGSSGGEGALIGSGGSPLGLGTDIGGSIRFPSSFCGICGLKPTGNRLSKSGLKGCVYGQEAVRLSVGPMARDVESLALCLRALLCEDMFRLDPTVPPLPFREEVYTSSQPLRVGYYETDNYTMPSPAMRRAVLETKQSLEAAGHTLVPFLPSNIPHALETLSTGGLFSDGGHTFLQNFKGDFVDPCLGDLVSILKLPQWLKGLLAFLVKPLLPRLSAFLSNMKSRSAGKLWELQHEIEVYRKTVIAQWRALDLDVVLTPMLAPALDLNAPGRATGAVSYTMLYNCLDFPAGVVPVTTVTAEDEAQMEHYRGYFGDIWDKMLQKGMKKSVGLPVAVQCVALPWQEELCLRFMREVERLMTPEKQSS
The assay can be described thus: Inhibition of FAAH at pH 9.

Assay [2] deals with T2, Fatty-acid amide hydrolase 1 (Homo sapiens) (UniProt O00519).
T2 sequence (whole entry): T1 sequence (O00519 whole entry)
Description: Binding affinity to FAAH assessed as thermal stability by measuring melting temperature

The target of assay [3] is T1, Fatty-acid amide hydrolase 1. The assay can be described thus: Inhibition of FAAH at pH 7.5.

By Ki is commonly meant the equilibrium dissociation constant of an inhibitor or competing ligand from its target.

Molecule `O=C(CCCCCCc1ccccc1)c1ncc(-c2cccc(-c3nnn[nH]3)n2)o1` yielded a Ki in assay [1] of 0.04 µM. In assay [2], the Tm amounted to 54.7 °C.

As to `COC(=O)c1cccc(-c2cnc(C(=O)CCCCCCc3ccccc3)o2)n1`, the Tm in assay [2] turned out to be 53.4 °C.

Regarding `O=C(CCc1ccc(-c2ccccc2)cc1)c1ncc(-c2ccccn2)o1`, the Tm in assay [2] turned out to be 59.9 °C.

Take `O=C(O)c1cccc(-c2nnc(C(=O)CCCCCCc3ccccc3)o2)n1`: the affinity in assay [1] corresponds to a Ki of 0.014 µM. Further, in assay [2], the Tm is 64.3 °C.

Turning to `O=C(CCCCCCc1ccccc1)c1ncc(-c2ccccn2)o1`, the Tm in assay [2] was 58.5 °C.

In turn, `O=C(CCCCCCc1ccccc1)c1nnc(-c2ccccn2)o1` yielded an inhibition constant (Ki) in assay [1] of 0.00029 µM. In addition, the Tm in assay [2] was determined as 60.6 °C.

With `NC(=O)c1cccc(-c2cnc(C(=O)CCCCCCc3ccccc3)o2)n1`, in assay [2], the Tm came out at 55 °C.

For `O=C(O)c1cccc(-c2cnc(C(=O)CCc3ccc(-c4ccc(CN5CCSCC5)cc4)cc3)o2)n1`, the Ki in assay [1] stood at 0.028 µM. Moreover, the Tm in assay [2] was determined as 65.3 °C.

`O=C(CCCCCCc1ccccc1)c1ncc(-c2ccccc2)o1`: the Tm in assay [2] amounted to 47.2 °C.

As to `O=C(O)c1cccc(-c2cnc(C(=O)CCc3ccc(-c4ccccc4)cc3)o2)n1`, the Ki in assay [1] came out at 0.022 µM.

With `O=C(O)c1cccc(-c2cnc(C(=O)CCCCCCc3ccccc3)o2)n1`, affinity in assay [3] was put at a Ki of 0.0104 µM.
